The target in assay [1] is T1, nicotinamide phosphoribosyl transferase (NAMPT) (Homo sapiens, UniProt P43490).
T1 construct: purchased Medical & Biological Laboratories Co., Ltd. (MBL)
Description: NAMPT activity measurement (NMN fluorescence detection). The assay is classed as biochemical. Conditions: NAMPT recombinant protein; 10 µM Nam. In a few lines:
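Recombinant NAMPT reacted with 10 µM Nam, 0.5 µM PRPP, 2 µM ATP in Tris pH 7.4 buffer with MgCl2, DTT, BSA; product NMN quantified by fluorescence (ex 421/em 480 nm) after derivatization with 2-acetylbenzofuran. Compounds at 3 nM–10 µM; control-normalized signal used for IC50.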

Assay [2] has as its system primary cultured cells of mouse fetus-derived dorsal root ganglia (DRGs). Description: Suppression of axonal degeneration after axotomy in DRG explant culture. In kind it is cell-based. Conditions: Mus musculus; minimum concentration at which axonal degeneration was suppressed (DI 0.3 or less); 24 hours after axotomy; read-out: Evaluation on protection against degeneration. The method, boiled down:
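Embryonic ICR mouse DRG explants were cultured 7–8 days in nicotinamide-free neuronal medium with NGF, then axotomized by removing the cell bodies. Compound (100 pM–10 µM final, 0.1% DMSO) was added within 30 min, and neurites were imaged 24 h later. The result is the lowest concentration giving degeneration index ≤0.3.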

Each structure is given as a SMILES string. Some results are limits rather than exact numbers.

T1 sequence (P43490 whole entry, species assumed): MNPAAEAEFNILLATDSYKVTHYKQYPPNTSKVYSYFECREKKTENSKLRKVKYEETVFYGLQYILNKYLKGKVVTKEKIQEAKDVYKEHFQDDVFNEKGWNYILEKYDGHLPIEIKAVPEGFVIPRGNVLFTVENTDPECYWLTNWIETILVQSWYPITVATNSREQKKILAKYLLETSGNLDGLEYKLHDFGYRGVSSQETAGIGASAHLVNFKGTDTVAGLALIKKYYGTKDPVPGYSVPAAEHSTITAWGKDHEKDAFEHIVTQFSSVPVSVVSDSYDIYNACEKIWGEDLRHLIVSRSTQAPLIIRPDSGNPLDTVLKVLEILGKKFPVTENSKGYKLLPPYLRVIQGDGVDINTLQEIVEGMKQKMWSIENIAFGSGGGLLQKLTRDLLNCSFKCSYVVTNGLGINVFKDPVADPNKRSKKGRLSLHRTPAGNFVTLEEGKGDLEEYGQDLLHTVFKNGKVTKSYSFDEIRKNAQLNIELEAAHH

As to `O=C(NCCCOCCOCCCNC(=O)c1cccnc1)c1cccnc1` [compound 35], in assay [1], the “Evaluation on NAMPT inhibitory” value is “○”. Besides, the minimal effective concentration in assay [2] is no more than 0.01 µM.
Consider `CC(C)(C)C(=O)Nc1ccc(CNC(=O)c2cccnc2)cn1` [compound 76], for which the “Evaluation on NAMPT inhibitory” value in assay [1] is on record as “○”. In assay [2], the minimal effective concentration was no more than 0.01 µM.
For the compound `O=C(NCc1ccc(NC(=O)c2ccccc2)nc1)c1cccnc1` [compound 105], the “Evaluation on NAMPT inhibitory” value in assay [1] is “○”. The minimal effective concentration in assay [2] was no more than 0.01 µM.

Values taken from patent publication EP4793271A1, “NEUROPROTECTIVE AGENT” (National Center of Neurology and Psychiatry, priority 2023, dated 2025).
